Among the data in patent US20250380697A1, “ISOXAZOLINE DERIVATIVE COMPOUND AND INSECTICIDAL COMPOSITION COMPRISING SAME” (KYUNG NONG CORPORATION, priority 2022, published 2025) are mortality values, retold here.

Format in all cases: in vivo
For test [1], the system named is Plutella xylostella. Put plainly: Pesticidal activity against Plutella xylostella, leaf-dipping method. The conditions noted are these: 48 h, read-out: mortality rate, Plutella xylostella.
The test system of test [2] is Lymantria dispar. Put plainly: Pesticidal activity against Lymantria dispar, leaf-dipping method. The conditions noted are these: maple leaf-dipping, counted 24, 48, 72 hours, time not given, read-out: mortality rate, Lymantria dispar. Here is the method: Maple leaves were dipped in the pesticide composition where the compound of Synthesis Example 2 was diluted (the solvent=distilled water+acetone 50,000 mg/L+Triton X-100 100 mg/L) for 30 seconds, and sufficiently shade-dried by placing them on aluminum foil. Then, in order to maintain the humidity of the shade-dried maple leaves, they were placed on a petri dish (9.0 cm in diameter) covered with a filter paper (9.0 cm in diameter) treated with distilled water, and repeatedly inoculated 4 times of five early third instar larvae of Lymantria dispar. In particular, Lymantria dispar larvae used were collected in Jukjang-myeon, Buk-gu, Pohang-si, Gyeongsangbuk-do, Korea. Then, Lymantria dispar larvae were stored under 16 hours of light: 8 hours of dark, 25±1° C., and 50-60% relative humidity, and the number of Lymantria dispar larvae was counted 24, 48, and 72 hours after inoculation. Thereafter, the larvae mortality rate was calculated in the same manner as in Test Example 1 above.

Test [3] relates to Helicoverpa armigera. Nature of the test: Pesticidal activity against Helicoverpa armigera, leaf-dipping method. The following applies: counted 24, 48, 72 hours, time not given, read-out: mortality rate, Helicoverpa armigera. Here is the method:
Cabbage (Daiya) leaves were cut into pieces with a diameter of 5.8 cm, dipped in the pesticide composition where the compound of Synthesis Example 2 was diluted (the solvent=distilled water+acetone 50,000 mg/L+Triton X-100 100 mg/L) for 30 seconds, and sufficiently shade-dried. Then, the shade-dried cabbage leaves were placed in a petri dish (8.8 cm in diameter) covered with a filter paper and repeatedly inoculated 3-5 times with third instar larvae of Helicoverpa armigera, 10 larvae per inoculation. In this case, Helicoverpa armigera larvae used were those purchased from the Andong National University (Korea). Then, the Helicoverpa armigera larvae were stored under the conditions of 16 hours of light and 8 hours of dark, 25±1° C., and relative humidity of 50-60%, and the number of live Helicoverpa armigera larvae was counted 24, 48, and 72 hours after the inoculation. Thereafter, the larvae mortality rate was calculated in the same manner as in Test Example 1 above.

Test [4] deals with Rhopobota naevana. Put plainly: Pesticidal activity against Rhopobota naevana, spray method. The following applies: spray on apple leaves, counted 24, 48, 72 hours, time not given, read-out: mortality rate, Rhopobota naevana. Here is the method:
Apple leaves were collected along with the stems, and the leaves of 3-4 base were cut into 5 cm×5 cm×5 cm pieces and placed in a tray oasis submerged in water. Then, the pesticide composition where the compound of Synthesis Example 2 was diluted (the solvent=distilled water+acetone 50,000 mg/L+Triton X-100 100 mg/L) was loaded into a 150 mL small sprayer and sprayed to the apple leaves, and 1 hour thereafter, the […] larvae were repeatedly inoculated 5-6 times, one per apple leaf. In particular, the Rhopobota naevana larvae were collected in the R&D Center of Kyung Nong Co., Ltd. (Gyeongju, Korea), and they were used after acclimatization indoors for 24 hours. Then, the Rhopobota naevana larvae were stored under the conditions of 16 hours of light and 8 hours of dark, 25±1° C. and relative humidity of 50-60%, and the number of live Rhopobota naevana larvae was counted 24, 48, and 72 hours after the inoculation. Thereafter, the larvae mortality rate was calculated in the same manner as in Test Example 1 above.

For test [5], the system named is Resistant Plutella xylostella. Put plainly: Resistance (tolerance) test against Plutella xylostella. The following applies: leaf-dipping, chlorantraniliprole-selected resistant individuals, counted 24 and 48 hours, read-out: mortality rate, Resistant Plutella xylostella. Here is the method: Resistance (tolerance) tests for pesticide compositions were performed on Plutella xylostella. In this case, the Plutella xylostellas used were resistant individuals obtained as follows: radish sprouts were germinated using a moth breeding acrylic cage (25 cm×30 cm×30 cm) to induce egg-laying in a breeding room in the Chungbuk National University (Korea), and the adult insects were collected using an InsectaVac Aspirator (BioQuip®) and induced to lay eggs again by applying a selection pressure using diamide-based chlorantraniliprole at 12.5 ppm once a month to breed for multiple generations.
Cabbage leaves were dipped in the pesticide composition where the compound was diluted (the solvent=distilled water+acetone 50,000 mg/L+Triton X-100 100 mg/L) for 30 seconds, and sufficiently shade-dried. Then, the shade-dried cabbage leaves were placed in a petri dish (8.8 cm in diameter) covered with a filter paper and repeatedly inoculated 3-5 times with third instar larvae of Plutella xylostella, which are resistant individuals, 10 larvae per inoculation. Then, the Plutella xylostella larvae were stored under the conditions of 16 hours of light and 8 hours of dark, 25±1° C., and relative humidity of 50-60%, and the number of live […] larvae was counted 24 and 48 hours after the inoculation. Thereafter, the larvae mortality rate was calculated in the same manner as in Test Example 1 above, and the results are shown in Table 2 below.

The test system of test [6] is Grapholita molesta. Put plainly: Pesticidal activity against Grapholita molesta, spray method. The conditions noted are these: spray on apples, counted 24, 72, 192 hours, time not given, read-out: mortality rate, Grapholita molesta. Here is the method:
The pesticide composition where the compound of Synthesis Example 2 was diluted (the solvent=distilled water+acetone 50,000 mg/L+Triton X-100 100 mg/L) was directly sprayed on apples using a CO2 Sprayer® [a nozzle type: Teejet8002VS (a flat fan type), pressure: 800 psi), and then apples were collected 1 hour later, and Grapholita molesta larvae were repeatedly inoculated 5-6 times, 3 per apple. In particular, the Grapholita molesta larvae were collected in the R&D Center of Kyung Nong Co., Ltd. (Gyeongju, Korea), and they were used after acclimatization indoors for 24 hours. Then, the Grapholita molesta larvae were stored under the conditions of 16 hours of light and 8 hours of dark, 25±1° C. and relative humidity of 50-60%, and the number of live Grapholita molesta larvae was counted 24, 72, and 192 hours after the inoculation. Thereafter, the larvae mortality rate was calculated in the same manner as in Test Example 1 above.

Usually mortality stands for the share of the test organisms that died. Take `Cc1cc(C2=NOC(c3cc(Cl)cc(C(F)(F)F)c3)(C(F)(F)F)C2)ccc1C(=O)NC(=O)C1CC1` (racemic) [Synthesis Example 2]: the mortality at 0.1 ppm turned out to be 100% in test [1]; 100% in test [2]; 100% in test [3]; 100% in test [4]; 93% in test [5]. Further, the mortality at 1 ppm in test [1], in test [4] and in test [5] was 100% throughout. For the same molecule, the mortality at 10 ppm in test [1] is 100%; in test [6], 85%. Also, the mortality at 0.01 ppm in test [2] amounted to 74%. Further, the mortality at 0.3 ppm in test [5] turned out to be 96%.

As to `CON=CNC(=O)c1ccc(C2=NOC(c3cc(Cl)cc(Cl)c3)(C(F)(F)F)C2)cc1C` (stereo not shown) [Comparative Example 1, fluxametamide], the mortality at 0.1 ppm in test [1] was found to be 100%; in test [2], 95%; in test [3] it was 78%; in test [4] it was 83%; in test [5] it was 34%. Moreover, the mortality at 1 ppm in test [1] stood at 100%; in test [4], 100%; in test [5], 58%. Further, the mortality at 10 ppm in test [1] came to 100%; in test [6] it was 85%. In addition, the mortality at 0.01 ppm in test [2] was 5%. Further, the mortality at 0.3 ppm in test [5] stood at 38%.

Consider `CNC(=O)c1cc(Cl)cc(C)c1NC(=O)c1cc(Br)nn1-c1ncccc1Cl` [Comparative Example 2, chlorantraniliprole], for which the mortality at 0.1 ppm in test [1] came out at 21%; in test [2], 10%; in test [3] it was 31%; in test [4] it was 100%. The values for the mortality at 1 ppm in test [1], in test [4] and in test [5] were 100%, 100% and 34%, respectively. The mortality at 10 ppm came out at 100% in test [1] and 85% in test [6]. The mortality at 0.01 ppm in test [2] is 0%.
